Ends that are not written are not given here.
Columns and labels:
Test in all cases: Plate bactericidal experiment (colony counting)
Assay type in all cases: cell-based
Details in all cases: 22-712 μg/ml tested
[1] = system: Escherichia coli (E. coli) ATCC 25922
Experimental: (§1) The Escherichia coli (E. coli) ATCC 25922, Staphylococcus aureus (S. aureus) ATCC 25923, and Acinetobacter baumannii (A. baumannii) ATCC 19606 used in our experiments were preserved in our laboratory. Bacteria were cultured in LB liquid medium at 37°C for 8–12 h. Then, the cultures were centrifuged at 4,000 rpm for 5 min and washed three times with PBS. Eventually, the bacterial solutions were diluted to different concentrations for testing (10–1.00 × 10^9 cfu/ml). First, 100 μl of CWR11-AuNC solution was added to an E. coli or S. aureus suspension (1 × 10^5 cfu/ml). After 1 h of incubation, 10 μl of bacterial suspension was inoculated on an LB solid agar plate and placed at 37°C for 24 h before the number of colonies was counted. In addition, different concentrations of CWR11-AuNCs were added to the bacterial suspensions (McFarland turbidity of 0.5) and placed at 37°C for 18–24 h. Bacterial viability was determined by measuring the absorbance at 600 nm.

[2] = system: Staphylococcus aureus (S. aureus) ATCC 25923
Experimental: as §1

[3] = system: Acinetobacter baumannii (A. baumannii) ATCC 19606

CWFWKWWRRRRR [CWR11]
significantly reduced the activity: effect on activity of E. coli [1] | effect on activity of S. aureus [2] | effect on activity of A. baumannii [3]

Source: paper PMC9589054, “One-step synthesized antimicrobial peptide-functionalized gold nanoclusters for selective imaging and killing of pathogenic bacteria” (Frontiers in Microbiology, 2022)
